Data taken from ChEMBL document CHEMBL1140968, “QSAR, action mechanism and molecular design of flavone and isoflavone derivatives with cytotoxicity against HeLa” (2008).

System: HeLa
Assay: Cytotoxicity against human HeLa cells
Format: functional

Structure (SMILES) | GC50 [µM] | pGC50
O=c1c(-c2ccccc2)coc2cc(OC/C(=N/O)c3ccccc3)ccc12 | 9 | 5.046
CO/N=C(/COc1ccc2c(=O)cc(-c3ccccc3)oc2c1)c1ccc(F)cc1 | 2.7 | 5.569
CO/N=C(\C)COc1ccc2c(=O)c(-c3ccccc3)coc2c1 | 8.5 | 5.071
CO/N=C(/COc1ccc2c(=O)cc(-c3ccccc3)oc2c1)c1ccccc1 | 6.6 | 5.18
O=c1c(OC/C(=N/O)c2ccccc2)c(-c2ccccc2)oc2ccccc12 | 1.8 | 5.745
CO/N=C(/COc1ccc2oc(-c3ccccc3)cc(=O)c2c1)c1ccc(F)cc1 | 2.3 | 5.638
CO/N=C(/COc1ccc2oc(-c3ccccc3)cc(=O)c2c1)c1ccccc1 | 2.4 | 5.62
CO/N=C(/COc1ccc2c(=O)c(-c3ccccc3)coc2c1)c1ccc(OC)cc1 | 7.3 | 5.137
CO/N=C(/COc1c(-c2ccccc2)oc2ccccc2c1=O)c1ccccc1 | 1.6 | 5.796
C/C(COc1c(-c2ccccc2)oc2ccccc2c1=O)=N\O | 2 | 5.699
C/C(COc1ccc2c(=O)c(-c3ccccc3)coc2c1)=N\O | 9.8 | 5.009
COc1ccc(/C(COc2ccc3c(=O)c(-c4ccccc4)coc3c2)=N\O)cc1 | 7.6 | 5.119
O=c1cc(-c2ccccc2)oc2ccc(OC/C(=N/O)c3ccccc3)cc12 | 0.8 | 6.097
C/C(COc1ccc2c(=O)cc(-c3ccccc3)oc2c1)=N\O | 2 | 5.699
CO/N=C(/COc1c(-c2ccccc2)oc2ccccc2c1=O)c1ccc(OC)cc1 | 2 | 5.699
CO/N=C(/COc1ccc2oc(-c3ccccc3)cc(=O)c2c1)c1ccc(OC)cc1 | 2 | 5.699

Structure (SMILES) | GC50 [µM] | pGC50
CO/N=C(\C)COc1c(-c2ccccc2)oc2ccccc2c1=O | 2 | 5.699
CO/N=C(/COc1ccc2c(=O)c(-c3ccccc3)coc2c1)c1ccc(F)cc1 | 6.4 | 5.194
CO/N=C(\C)COc1ccc2c(=O)cc(-c3ccccc3)oc2c1 | 2.2 | 5.658
O=c1cc(-c2ccccc2)oc2cc(OC/C(=N/O)c3ccccc3)ccc12 | 2 | 5.699
O=c1cc(-c2ccccc2)oc2ccc(OC/C(=N/O)c3ccc(F)cc3)cc12 | 1.6 | 5.796
CO/N=C(\C)COc1ccc2oc(-c3ccccc3)cc(=O)c2c1 | 0.9 | 6.046
CO/N=C(/COc1ccc2c(=O)cc(-c3ccccc3)oc2c1)c1ccc(OC)cc1 | 2.5 | 5.602
C/C(COc1ccc2oc(-c3ccccc3)cc(=O)c2c1)=N\O | 1.2 | 5.921
O=c1c(-c2ccccc2)coc2cc(OC/C(=N/O)c3ccc(F)cc3)ccc12 | 7.8 | 5.108
COc1ccc(/C(COc2ccc3c(=O)cc(-c4ccccc4)oc3c2)=N\O)cc1 | 2 | 5.699
CO/N=C(/COc1ccc2c(=O)c(-c3ccccc3)coc2c1)c1ccccc1 | 8.2 | 5.086
COc1ccc(/C(COc2ccc3oc(-c4ccccc4)cc(=O)c3c2)=N\O)cc1 | 1 | 6
O=c1cc(-c2ccccc2)oc2cc(OC/C(=N/O)c3ccc(F)cc3)ccc12 | 2 | 5.699
O=c1c(OC/C(=N/O)c2ccc(F)cc2)c(-c2ccccc2)oc2ccccc12 | 2.1 | 5.678
CO/N=C(/COc1c(-c2ccccc2)oc2ccccc2c1=O)c1ccc(F)cc1 | 2 | 5.699
COc1ccc(/C(COc2c(-c3ccccc3)oc3ccccc3c2=O)=N\O)cc1 | 2 | 5.699
